Laboratory results from ChEMBL document CHEMBL6153138, “Discovery of Novel Aromatic Urea-Imidazole Salt Derivatives for Cancer Therapy via Targeting ERK1/2” (J Med Chem, 2025).
The source made the active and inactive calls. No cut-off for these calls is given here.

How the values were obtained:
[1] = system: MCF7; test: Antiproliferative activity against human MCF7 cells incubated for 48 hrs by CCK-8 method; assay type: functional, cell-based; settings: MCF7, 48 h
[2] = system: 4T1; test: Antiproliferative activity against mouse 4T1 cells incubated for 48 hrs by CCK-8 method; assay type: functional, cell-based; settings: 4T1, 48 h
[3] = system: HCC1937; test: Antiproliferative activity against human HCC1937 cells incubated for 48 hrs by CCK-8 method; assay type: functional, cell-based; settings: HCC1937, 48 h
[4] = AUC (0 to t) in Sprague-Dawley rat at 1 mg/kg, iv by LC-MS/MS analysis; assay type: ADME, organism-based; settings: in vivo
[5] = AUC (0 to infinity) in Sprague-Dawley rat at 1 mg/kg, iv by LC-MS/MS analysis; assay type: ADME, organism-based; settings: in vivo
[6] = Apparent volume of distribution in Sprague-Dawley rat at 1 mg/kg, iv by LC-MS/MS analysis; assay type: ADME, organism-based; settings: in vivo, read-out: Vz
[7] = Oral availability in Sprague-Dawley rat at 10 mg/kg by LC-MS/MS analysis; assay type: ADME, organism-based; settings: in vivo
[8] = target: Mitogen-activated protein kinase 1 (Homo sapiens, UniProt P28482); test: Binding affinity to ERK2 (unknown origin) assessed as dissociation constant by MST analysis
[9] = target: Mitogen-activated protein kinase 3 (Homo sapiens, UniProt P27361); test: Inhibition of ERK1 (unknown origin) incubated for 60 mins by luminescence based ADP-Glo kinase assay
[10] = system: MCF7; test: Upregulation of ERK1/2 phosphorylation expression in human MCF7 cells at 2 uM measured after 12 to 24 hrs by Western blot analysis; assay type: functional, cell-based; settings: time 12-24 hrs
[11] = target: Ribosomal protein S6 kinase alpha-1 (Homo sapiens, UniProt Q15418); test: Inhibition of RSK1 (unknown origin) incubated for 60 mins by luminescence based ADP-Glo kinase assay
[12] = target: Serine/threonine-protein kinase TAO2 (Homo sapiens) (UniProt Q9UL54); test: Inhibition of human TAO2 at 10000 nM by DiscoverX KINOMEscan assay relative to control
[13] = system: MCF7; test: Inhibition of proliferation in human MCF7 cells at 0.5 to 2 uM incubated for 48 hrs by EdU incorporation assay; assay type: functional, cell-based; settings: dose 0.5-2 µM
[14] = system: MCF7; test: Downregulation of vimentin expression in human MCF7 cells at 0.5 to 2 uM; assay type: functional, cell-based; settings: dose 0.5-2 µM
[15] = system: Mitochondrial membrane; test: Induction of mitochondrial membrane potential loss in human MCF7 cells assessed as increase in JC-1 monomers by measuring increase in green fluorescence at 2 uM by flow cytometry analysis (reference value: 38.0%); assay type: cell membranes
[16] = system: MCF7; test: Induction of apoptosis in human MCF7 cells assessed as early apoptotic cells at 0.5 uM incubated for 48 hrs by Annexin V/FITC and PI staining based flow cytometry analysis (reference value: 1.1%); assay type: functional
[17] = system: MCF7; test: Induction of apoptosis in human MCF7 cells assessed as late apoptotic cells at 1 uM incubated for 48 hrs by Annexin V/FITC and PI staining based flow cytometry analysis (reference value: 2.5%); assay type: functional
[18] = system: MCF7; test: Induction of autophagy in human MCF7 cells assessed as upregulation of beclin1 expression incubated for 48 hrs by Western blotting analysis; assay type: functional, cell-based; settings: dose 0.5-2 µM
[19] = system: MCF7; test: Induction of autophagy in human MCF7 cells harbouring beclin1 knockout assessed as increase in LC3B expression at 1 uM incubated for 48 hrs by Western blot analysis; assay type: functional, cell-based
[20] = system: MCF7; test: Induction of autophagy in human MCF7 cells assessed as increase in ATG5 level at 1 uM by Western blot analysis; assay type: functional, cell-based
[21] = system: MCF7; test: Induction of autophagy in human MCF7 cells assessed as increase in Beclin-1 level at 1 uM by Western blot analysis; assay type: functional, cell-based
[22] = system: MCF7; test: Induction of autophagic flux in human MCF7 cells assessed as appearance of multi membrane structure at 0.5 to 2 uM by TEM based analysis; assay type: functional, cell-based; settings: dose 0.5-2 µM
[23] = system: MCF7; test: Induction of autophagic flux in human MCF7 cells assessed as colocalization of LC3B at 1 uM incubated for 48 hrs in presence of chloroquine by immunofluorescence analysis; assay type: functional, cell-based
[24] = system: MCF7; test: Upregulation of C-caspase3 protein expression in human MCF-7 cells at 1 uM incubated for 6 hrs in presence of 3-methyladenine by Western blot analysis; assay type: functional, cell-based
[25] = system: 4T1; test: Antitumor activity against mouse 4T1 cells implanted in female BALB/c mouse model assessed as tumor necrosis at 25 to 50 mg/kg, po qd measured for 18 days by H and E staining based analysis; assay type: functional, organism-based; settings: dose 25-50 mg/kg, time 18.0 day
[26] = Toxicity in female BALB/c mouse assessed as effect on tumor at 25 to 50 mg/kg, po qd measured after 18 days by H and E staining based analysis; assay type: organism-based; settings: in vivo, 432 h, dose 25-50 mg/kg, time 18 day
[27] = Toxicity in female BALB/c mouse assessed as effect ALB level in serum at 25 to 50 mg/kg, po qd measured after 18 days by biochemical analysis; assay type: organism-based; settings: in vivo, 432 h, dose 25-50 mg/kg, time 18 day
[28] = Toxicity in female BALB/c mouse assessed as effect TP level in serum at 25 to 50 mg/kg, po qd measured after 18 days by biochemical analysis; assay type: organism-based; settings: in vivo, 432 h, dose 25-50 mg/kg, time 18 day
[29] = system: 4T1; test: Antitumor activity against mouse 4T1 cells implanted in female BALB/c mouse model assessed as reduction in number of Ki67-positive proliferative cells at 25 to 50 mg/kg, po qd by immunohistochemical analysis; assay type: functional, organism-based; settings: dose 25-50 mg/kg
[30] = system: 4T1; test: Antitumor activity against mouse 4T1 cells implanted in female BALB/c mouse model assessed as reduction in number of PCNA-positive proliferative cells at 25 to 50 mg/kg, po qd by immunohistochemical analysis; assay type: functional, organism-based; settings: dose 25-50 mg/kg
[31] = system: 4T1; test: Antitumor activity against mouse 4T1 cells implanted in female BALB/c mouse model assessed as increase in ERK1/2 phosphorylation at 50 mg/kg, po qd measured from 30 mins to 8 hrs by immunohistochemical analysis; assay type: functional, organism-based; settings: time 30-480 min
[32] = system: 4T1; test: Antitumor activity against mouse 4T1 cells implanted in female BALB/c mouse model assessed as increase in tumor cell necrosis at 50 mg/kg, po qd measured for 18 days in presence of chloroquine; assay type: functional, organism-based; settings: time 18.0 day
[33] = Toxicity in female BALB/c mouse assessed as change in body weight at 50 mg/kg, po qd measured after 18 days in presence of chloroquine; assay type: organism-based; settings: in vivo, 432 h, time 18 day
[34] = Toxicity in female BALB/c mouse assessed as effect on kidney at 50 mg/kg, po qd measured after 18 days in presence of chloroquine by H and E staining based analysis; assay type: organism-based; settings: in vivo, 432 h, time 18 day
[35] = system: 4T1-Luc; test: Anti-metastatic activity in mouse 4T1-Luc cells assessed as reduction in fluorescence intensity at 25 to 50 mg/kg, po measured after 16 days; assay type: functional, organism-based; settings: dose 25-50 mg/kg, time 16.0 day
[36] = system: 4T1-Luc; test: Anti-metastatic activity in mouse 4T1-Luc cells assessed as reduction in number of tumor metastatic nodules at 25 to 50 mg/kg, po measured after 20 days; assay type: functional, organism-based; settings: dose 25-50 mg/kg, time 20.0 day
[37] = system: 4T1-Luc; test: Anti-metastatic activity in mouse 4T1-Luc cells assessed as reduction in disruption of cell structure at 25 to 50 mg/kg, po measured after 20 days by H and E staining based analysis; assay type: functional, organism-based; settings: dose 25-50 mg/kg, time 20.0 day

Chain of Ribosomal protein S6 kinase alpha-1 (Q15418 whole entry): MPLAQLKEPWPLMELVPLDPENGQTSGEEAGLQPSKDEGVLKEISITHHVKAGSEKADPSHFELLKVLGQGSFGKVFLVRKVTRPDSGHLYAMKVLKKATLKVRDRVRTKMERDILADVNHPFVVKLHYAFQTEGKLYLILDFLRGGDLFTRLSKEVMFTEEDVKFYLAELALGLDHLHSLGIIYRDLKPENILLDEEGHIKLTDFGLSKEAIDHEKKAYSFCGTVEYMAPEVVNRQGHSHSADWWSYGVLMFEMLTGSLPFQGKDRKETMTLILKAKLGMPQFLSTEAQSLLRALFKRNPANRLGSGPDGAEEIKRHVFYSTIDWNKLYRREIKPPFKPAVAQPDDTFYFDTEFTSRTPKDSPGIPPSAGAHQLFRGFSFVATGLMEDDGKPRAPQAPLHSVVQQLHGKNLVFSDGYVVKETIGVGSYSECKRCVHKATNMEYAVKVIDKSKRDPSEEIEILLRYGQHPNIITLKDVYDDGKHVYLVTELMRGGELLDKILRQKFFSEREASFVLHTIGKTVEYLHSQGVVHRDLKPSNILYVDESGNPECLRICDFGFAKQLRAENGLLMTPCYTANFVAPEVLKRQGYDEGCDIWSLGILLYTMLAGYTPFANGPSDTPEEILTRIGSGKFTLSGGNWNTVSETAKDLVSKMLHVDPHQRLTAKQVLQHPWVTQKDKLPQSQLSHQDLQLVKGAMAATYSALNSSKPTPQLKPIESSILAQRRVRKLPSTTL
Chain of Serine/threonine-protein kinase TAO2 (Homo sapiens) (Q9UL54 whole entry): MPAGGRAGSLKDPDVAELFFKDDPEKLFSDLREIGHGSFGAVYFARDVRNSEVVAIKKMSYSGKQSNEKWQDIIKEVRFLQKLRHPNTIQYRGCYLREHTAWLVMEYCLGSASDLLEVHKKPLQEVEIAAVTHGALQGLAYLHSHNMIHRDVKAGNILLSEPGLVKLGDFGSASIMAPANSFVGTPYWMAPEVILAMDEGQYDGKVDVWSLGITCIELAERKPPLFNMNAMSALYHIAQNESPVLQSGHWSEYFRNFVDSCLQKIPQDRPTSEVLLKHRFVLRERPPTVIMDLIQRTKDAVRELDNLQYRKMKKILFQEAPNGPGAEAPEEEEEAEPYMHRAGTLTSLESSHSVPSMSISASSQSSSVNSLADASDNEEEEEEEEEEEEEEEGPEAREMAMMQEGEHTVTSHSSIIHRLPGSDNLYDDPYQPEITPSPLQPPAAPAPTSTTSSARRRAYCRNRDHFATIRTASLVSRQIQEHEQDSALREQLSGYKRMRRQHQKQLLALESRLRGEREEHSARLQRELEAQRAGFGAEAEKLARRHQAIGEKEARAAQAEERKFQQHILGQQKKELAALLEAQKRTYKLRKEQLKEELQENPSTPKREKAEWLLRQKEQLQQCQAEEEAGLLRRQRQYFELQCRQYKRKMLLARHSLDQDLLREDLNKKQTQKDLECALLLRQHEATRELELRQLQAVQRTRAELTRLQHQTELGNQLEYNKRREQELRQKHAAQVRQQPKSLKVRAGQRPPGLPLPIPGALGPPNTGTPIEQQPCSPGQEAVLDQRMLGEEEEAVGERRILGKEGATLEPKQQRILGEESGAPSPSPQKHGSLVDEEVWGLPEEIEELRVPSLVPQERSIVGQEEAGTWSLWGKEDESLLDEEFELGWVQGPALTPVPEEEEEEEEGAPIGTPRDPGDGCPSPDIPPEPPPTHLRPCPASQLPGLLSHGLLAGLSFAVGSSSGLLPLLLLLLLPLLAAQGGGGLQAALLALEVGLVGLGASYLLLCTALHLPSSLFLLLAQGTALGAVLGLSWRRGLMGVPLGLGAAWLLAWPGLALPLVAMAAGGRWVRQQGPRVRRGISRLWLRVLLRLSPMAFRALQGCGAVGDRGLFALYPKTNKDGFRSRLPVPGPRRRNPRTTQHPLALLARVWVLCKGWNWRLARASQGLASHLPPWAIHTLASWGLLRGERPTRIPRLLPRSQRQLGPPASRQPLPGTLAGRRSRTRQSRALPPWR
Chain of Mitogen-activated protein kinase 1 (P28482 whole entry): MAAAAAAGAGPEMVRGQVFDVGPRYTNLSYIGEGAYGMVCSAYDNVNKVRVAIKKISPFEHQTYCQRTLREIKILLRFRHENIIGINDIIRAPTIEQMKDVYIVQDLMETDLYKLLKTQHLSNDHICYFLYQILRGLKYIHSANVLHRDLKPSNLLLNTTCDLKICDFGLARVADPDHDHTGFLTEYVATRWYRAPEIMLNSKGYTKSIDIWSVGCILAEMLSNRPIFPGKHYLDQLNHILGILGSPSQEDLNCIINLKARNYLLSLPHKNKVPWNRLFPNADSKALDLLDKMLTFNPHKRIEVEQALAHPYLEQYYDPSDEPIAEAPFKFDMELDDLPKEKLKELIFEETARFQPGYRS
Chain of Mitogen-activated protein kinase 3 (P27361 whole entry): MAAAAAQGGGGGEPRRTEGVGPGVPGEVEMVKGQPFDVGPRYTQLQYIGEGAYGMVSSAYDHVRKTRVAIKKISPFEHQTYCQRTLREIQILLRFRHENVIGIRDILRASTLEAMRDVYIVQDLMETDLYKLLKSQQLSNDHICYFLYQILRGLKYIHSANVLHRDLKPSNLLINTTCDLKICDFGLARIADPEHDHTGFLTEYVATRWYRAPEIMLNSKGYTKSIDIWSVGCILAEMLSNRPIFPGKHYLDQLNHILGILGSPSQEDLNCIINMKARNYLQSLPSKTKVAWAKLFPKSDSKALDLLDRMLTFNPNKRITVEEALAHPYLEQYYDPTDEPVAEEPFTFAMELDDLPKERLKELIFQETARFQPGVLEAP

`O=C(Nc1cc(C(F)(F)F)cc(C(F)(F)F)c1)N[C@@H](Cc1ccccc1)Cn1c[n+](Cc2ccc3ccccc3c2)c2ccccc21.[Br-]` gave an IC50 [1] of 0.67 µM, an IC50 [2] of 2.76 µM and an IC50 [3] of 1.68 µM. For the same compound, the AUC(0-t) [4] was 1040 ng·h/mL, the AUC(0-inf) [5] was 1100 ng·h/mL and the Vd [6] was 4.41 L/kg. For the same compound, the bioavailability [7] was 37.1%, the Kd [8] was 0.116 µM and the IC50 [9] was 0.0917 µM. The Activity [10] was “inactive”, the IC50 [11] was 0.674 µM and the inhibition [12] was 14%. The inhibition [13] was “Active”, the Activity [14] was “Active” and the Activity [15] was 52.4%. For the same compound, the Activity [16] was 9.9%, the Activity [17] was 9.6% and the Activity [18] was “Dose-dependent-effect”. The Activity [19] was “inactive”, the Activity [20] was “Active” and the Activity [21] was “Active”. The Activity [22] was “Active”, the Activity [23] was “Active” and the Activity [24] was “Active”. For the same compound, the Activity [25] was “Active”, the Activity [26] was “Non-toxic” and the Activity [27] was “Non-toxic”. The Activity [28] was “Non-toxic”, the Activity [29] was “Active” and the Activity [30] was “Active”. For the same compound, the Activity [31] was “Active”, the Activity [32] was “Active” and the Activity [33] was “Non-toxic”. For the same compound, the Activity [34] was “Non-toxic”, the Activity [35] was “Active” and the Activity [36] was “Active”. The Activity [37] was “Active”.
